System: male rats (SD, F344, WF)
Assay: Effects of ENU treatment on male rat fertility (breeding to same-strain females)
Type: in vivo
Conditions: for % fertile males: weeks 7-26 post-ENU
Protocol: ENU mutagenesis rat protocol: Pathogen-free inbred Wistar Furth (WF), inbred Fischer-344 (F344) and outbred Sprague Dawley (SD) male and female rats were obtained from Harlan Sprague Dawley, Inc. (Indianapolis, Ind.). All rats were given Teklad Lab Blox chow (Harlan Teklad, Madison, Wis.), acidified water ad libitum, and were housed under a 12-h light/12-h dark cycle. After a one week acclimation period, nine-week-old male rats were administered ENU as a single intraperitoneal injection; for a split dose, rats were injected with ENU once at 9 weeks of age and again at 10 weeks of age. One gram of ENU (Sigma) was dissolved in 10 mls of 95% ethanol and then diluted with 90 mls of phosphate citrate buffer prior to injection. All injections of ENU were given in the morning hours. To characterize the effect of ENU treatment on fertility in the various rat strains, mutagenized males were paired with untreated females of the same strain for consecutive 2-3 week periods, beginning 3-5 weeks after the first ENU treatment and continuing a minimum of 26 weeks post-ENU. We observed female rats for vaginal plugs, gross pregnancy and date of birth/size of litters. For our phenotypic mutant (phenodeviant) rat screening experiments, ENU-treated SD male rats were bred with SD female rats and all F1 pups were visually checked for gross abnormalities in physical development or behavior as compared to littermates at least twice prior to weaning at approximately 21 days of age. A subset of the F1 phenodeviant rats identified was bred to SD rats to determine inheritance of the observed phenotypic mutation. Several of the heritable phenodeviant rat lines are currently being maintained and backcrossed to eliminate residual ENU-induced genetic changes not associated with the phenotypic mutation.
Optimization of ENU dosages: We examined several rat strains, inbred WF and F344 rats and outbred SD rats in which groups of male rats were given either single or split doses of ENU. These male rats were then bred to same-strain female rats at various times post-ENU to test for fertility (Table 1). The three rat strains were unable to regain fertility following large doses of ENU. The WF strain was extremely sensitive to ENU-induced sterility. […] The SD and F344 strains responded in a similar manner with maximum ENU doses of 100-150 mg/kg, allowing for some percentage of rats to remain fertile or recover fertility; however, the F344 strain was more sensitive to split dose protocols compared to the SD rats. […] This phenomenon was also true for the both the F344 and WF rat strains. […] It also appears from the SD and F344 fertility data shown in Table 1 that these rat strains were more likely to remain fertile or regain fertility following a split dose of ENU versus a single dose when the total dose exposure was equal. In addition, average litter size was reduced in both the SD and F344 strains around weeks 1-9 post-ENU (data not shown), the same time period in which we observed reduced fertility in the ENU-treated males.

CCN(N=O)C(N)=O [ENU, N-ethyl-N-nitrosourea]
fertility of treated males (F344, 75 mg/kg): All rats remained fertile
rats that maintained fertility (F344, 100 mg/kg given in either a single or split dose): about 60%
% fertile males (F344, single dose 75 mg/kg i.p.): 100%
% fertile males (F344, single dose 100 mg/kg i.p.): 67%
% fertile males (F344, single dose 120 mg/kg i.p.): 0%
% fertile males (F344, split dose 2 × 50 mg/kg): 60%
% fertile males (F344, split dose 2 × 60 mg/kg): 40%
% fertile males (F344, split dose 2 × 75 mg/kg): 0%
% fertile males (F344, split dose 2 × 100 mg/kg): 0%
maximum ENU doses allowing some percentage of rats to remain fertile or recover fertility (SD and F344 strains): 100 to 150 mg/kg
average litter size (SD and F344 strains, around weeks 1-9 post-ENU (data not shown)): reduced
% fertile males (SD, single dose 75 mg/kg i.p.): 100%
% fertile males (SD, single dose 100 mg/kg i.p.): 80%
% fertile males (SD, single dose 120 mg/kg i.p.): 33%
% fertile males (SD, single dose 150 mg/kg i.p.): 0%
% fertile males (SD, single dose 200 mg/kg i.p.): 0%
fertility of treated males (SD, split dose 2×50 mg/kg or 2×60 mg/kg, after a brief recovery period): fully fertile
% fertile males (SD, split dose 2 × 50 mg/kg): 100%
% fertile males (SD, split dose 2 × 60 mg/kg): 100%
% fertile males (SD, split dose 2 × 75 mg/kg): 20%
% fertile males (SD, split dose 2 × 100 mg/kg): 0%
maximum total dose after which fertile males were obtained (WF strain): 50 mg/kg
male rats permanently sterilized (WF, 25 mg/kg single injection): approximately 70%
% fertile males (WF, single dose 25 mg/kg i.p.): 30%
% fertile males (WF, single dose 35 mg/kg i.p.): 33%
% fertile males (WF, single dose 50 mg/kg i.p.): 25%
% fertile males (WF, single dose 75 mg/kg i.p.): 0%
% fertile males (WF, single dose 100 mg/kg i.p.): 0%
% fertile males (WF, split dose 2 × 15 mg/kg): 17%
% fertile males (WF, split dose 2 × 25 mg/kg): 17%
% fertile males (WF, split dose 2 × 50 mg/kg): 0%
% fertile males (WF, split dose 2 × 75 mg/kg): 0%

Reference: patent US20070056052A1, “Methods of generating knock-out rodents” (priority 2001, published 2007)
